Laboratory results reported in patent publication US9023878B2 (Neurophyxia B.V., priority 2010, dated 2015).

Assays:
[1] = Solubility/encapsulation in cyclodextrin solutions (excess 2-IB, three days, filtered, RP-HPLC)
Procedure: An excess of 2-IB was added to the cyclodextrin solutions, mixed at room temperature for three days and then filtered to remove non-encapsulated) non-solubilised 2-IB.

[2] = Solubility of 2-IB in 10% SBE-CD at different pH adjusted with 0.1 M citric acid (HPLC); format: physicochemical
[3] = Solubility of 2-IB in water at different pH; format: physicochemical
[4] = Solvent selection: stepwise solvent addition, solubility judged visually
Procedure: Solubility of 2-IB was determined in the following solvents: • 0.9% Sodium chloride in water • 5% Dextrose in water • N,N-dimethylacetamide • N,N-dimethylformamide • Dimethyl sulfoxide • Ethanol • Propolyene glycol • Polyethyleneglycol 400 • Corn oil
Approximately 10 mg of 2-IB was weighed into a 10 ml tube. Subsequently, small aliquots (100 μl-100 μl-200 μl-400 μl-800 μl-1600 μl-3200 μl) of the respective solvents were added stepwise. After each addition, the solution was mixed intensively and visually judged for solubility.
Therefore the experiment was repeated for propylene glycol but with addition of 100 μl 1N hydrochloric acid after 200 μl propylene glycol (i.e. 10 mg 2-IB+200 μl propylene glycol+100 μl 1N hydrochloric acid).
When an acidified 2-IB formulation in 5% dextrose is prepared, the pH after acidification is approximately 2 for nominal 2-IB concentrations in the range 1-5 mg/ml.

[5] = Novel excipients (Cremophor EL, Solutol HS 15): 2-IB content of formulations at t=0 and after 48 hours; conditions: for Concentration t = 0 / Concentration t = 48 h: Solutol HS 15 formulation
Procedure: Finally two novel excipients were tested, Cremophor EL and Solutol HS 15.
A range of 2-IB formulations were prepared that were stored for 48 hours and measured for 2-IB content:

[6] = Solubility of 2-IB (5 mg/ml) using different acids; format: physicochemical
[7] = nominal 5.0 mg/ml, pH 2.4, after filtration
[8] = nominal 5.0 mg/ml, pH 2.8, after filtration
[9] = nominal 5.0 mg/ml, pH 3.0, after filtration
[10] = nominal 5.0 mg/ml, pH 3.5, after filtration
[11] = nominal 5.0 mg/ml, pH 3.6, after filtration
[12] = nominal 5.0 mg/ml, pH 3.8, after filtration
[13] = nominal 5.0 mg/ml, pH 10.2, after filtration
[14] = nominal 10 mg/ml, pH 3.0, after filtration
[15] = nominal 10 mg/ml, pH 3.5, after filtration
[16] = nominal 20 mg/ml, pH 3.0, after filtration
[17] = nominal 20 mg/ml, pH 3.5, after filtration

N=C1N[C@H]2[C@H](CS[C@H]2CCCCC(=O)O)N1 [Formulation 2-IB, 2-iminobiotin]
concentration of 2-IB ([1]; 5% HP-CD, Citrate pH 4.0, final pH 4.3): 3.0 mg/mL | concentration of 2-IB ([1]; 5% HP-CD, Citrate pH 5.0, final pH 5.1): 1.2 mg/mL | concentration of 2-IB ([1]; 5% HP-CD, WFI, final pH 6.5): 0.5 mg/mL | concentration of 2-IB ([1]; 5% SBE-CD, Citrate pH 4.0, final pH 4.4): 5.5 mg/mL | concentration of 2-IB ([1]; 5% SBE-CD, Citrate pH 5.0, final pH 5.1): 2.9 mg/mL | concentration of 2-IB ([1]; 5% SBE-CD, WFI, final pH 6.5): 1.0 mg/mL | concentration of 2-IB ([1]; 10% HP-CD, Citrate pH 4.0, final pH 4.5): 4.1 mg/mL | concentration of 2-IB ([1]; 10% HP-CD, Citrate pH 5.0, final pH 5.2): 1.6 mg/mL | concentration of 2-IB ([1]; 10% HP-CD, WFI, final pH 6.5): 0.6 mg/mL | concentration of 2-IB ([1]; 10% SBE-CD, Citrate pH 4.0, final pH 4.6): 8.0 mg/mL | concentration of 2-IB ([1]; 10% SBE-CD, Citrate pH 5.0, final pH 5.1): 4.6 mg/mL | concentration of 2-IB ([1]; 10% SBE-CD, WFI, final pH 6.5): 1.5 mg/mL | concentration of 2-IB ([1]; 20% HP-CD, Citrate pH 4.0, final pH 4.7): 5.1 mg/mL | concentration of 2-IB ([1]; 20% HP-CD, Citrate pH 5.0, final pH 5.3): 2.1 mg/mL | concentration of 2-IB ([1]; 20% HP-CD, WFI, final pH 6.6): 0.9 mg/mL | concentration of 2-IB ([1]; 20% SBE-CD, Citrate pH 4.0, final pH 4.9): 11.4 mg/mL | concentration of 2-IB ([1]; 20% SBE-CD, Citrate pH 5.0, final pH 5.3): 7.0 mg/mL | concentration of 2-IB ([1]; 20% SBE-CD, WFI, final pH 6.7): 2.4 mg/mL | concentration of 2-IB ([1]; 40% HP-CD, Citrate pH 4.0, final pH 5.0): 5.6 mg/mL | concentration of 2-IB ([1]; 40% HP-CD, Citrate pH 5.0, final pH 5.6): 2.6 mg/mL | concentration of 2-IB ([1]; 40% HP-CD, WFI, final pH 6.7): 1.2 mg/mL | solubility with pH-adjustment alone ([2]; pH 4.0, without SBE-CD): 1.72 mg/g | solubility with pH-adjustment alone ([2]; pH 5.0, without SBE-CD): 0.59 mg/g | solubility in water ([3]; pH 3.5): around 4.5 mg/ml | solubility in water ([3]; pH 5): around 0.59 mg/ml | solubility in water ([3]; pH 7.4): around 0.34 mg/ml | concentration of fully dissolved and stable solution ([4]; 10 mg 2-IB+200 μl propylene glycol+100 μl 1N hydrochloric acid): 33 mg/mL | solubility, visually judged ([4]; 10 mg in 6400 μl (1.6 mg/ml) of 0.9% NaCl, 5% dextrose, DMA, DMF, DMSO, ethanol, propylene glycol, PEG 400 or corn oil): not sufficiently soluble in any of these solvents | effect of addition of water ([4]; 33 mg/ml propylene glycol/hydrochloric acid formulation): immediately resulted in precipitation of 2-IB | precipitation, visual observation ([4]; acidified 2-IB in 5% dextrose neutralized to pH 7): nearly all 2-IB has precipitated out of solution | pH up to which partial neutralization is possible before precipitation ([4]; acidified 2-IB in 5% dextrose, nominal 1-5 mg/ml, 0.1% sodium hydroxide): 3-3.5 | solubility, visually judged ([4]; same solvents after addition of 100 μl of 1N hydrochloric acid): fully dissolved in all solvents | Solutol HS 15 concentration giving optimal solubility ([5]; 5-10-15-20-25% Solutol HS 15 tested at approximately 5 mg/ml): 20% | pH at which the formulation could be prepared ([5]; 20% Solutol HS 15 and 5% Dextrose in water): 3.5-3.6 | Concentration t = 0 [5, 7]: 5.65 mg/mL | Concentration t = 48 h [5, 7]: 4.78 mg/mL | Concentration t = 0 [5, 8]: 5.43 mg/mL | Concentration t = 48 h [5, 8]: 5.45 mg/mL | Concentration t = 0 [5, 9]: 4.64 mg/mL | Concentration t = 48 h [5, 9]: 4.87 mg/mL | Concentration t = 0 [5, 10]: 5.21 mg/mL | Concentration t = 48 h [5, 10]: 4.94 mg/mL | Concentration t = 0 [5, 11]: 4.52 mg/mL | Concentration t = 48 h [5, 11]: 3.93 mg/mL | Concentration t = 0 [5, 12]: 5.10 mg/mL | Concentration t = 48 h [5, 12]: 2.62 mg/mL | Concentration t = 0 [5, 13]: 5.71 mg/mL | Concentration t = 48 h [5, 13]: 0 mg/mL | Concentration t = 0 [5, 14]: 9.06 mg/mL | Concentration t = 48 h [5, 14]: 8.64 mg/mL | Concentration t = 0 [5, 15]: 8.30 mg/mL | Concentration t = 48 h [5, 15]: 8.04 mg/mL | Concentration t = 0 [5, 16]: 16.6 mg/mL | Concentration t = 48 h [5, 16]: 16.7 mg/mL | Concentration t = 0 [5, 17]: 14.7 mg/mL | Concentration t = 48 h [5, 17]: 13.2 mg/mL | pH at which solubility was achieved ([6]; HCl): 3.0 | pH at which solubility was achieved ([6]; weak acids (acetic acid and citric acid)): 3.3
